Measurements from patent US20230338453A1, “PROCESS FOR PRODUCING A HYDROLYSATE OF SCUTELLARIA ROOT, WHICH IS ENRICHED AND STANDARDIZED WITH FLAVONOIDS OF INTEREST, THE HYDROLYSATE OBTAINED BY SUCH A PROCESS, AND COSMETIC AND DERMOCOSMETIC APPLICATIONS OF SUCH A HYDROLYSATE” (EXSYMOL, priority 2020, published 2023).

System: pro-inflammatory cytokine IL-6
Assay: Test 1: IL-6 secretion by stress-induced senescent fibroblasts (ELISA)
Format: cell-based, human
Protocol: Experimentally, the test was carried out on primary human fibroblasts (abbreviation “NHDF” for “Normal Human Dermal Fibroblasts”) isolated from breast plastic surgery from a patient. These NHDFs were cultured in a complete “DMEM” culture medium (with 4.5 g/l of glucose and 10% of fetal calf serum (FCS)), then maintained in an atmosphere at 37° C. and 10% of CO2. On D-2, the fibroblasts were seeded in 6-well plates at a rate of 1.10^4 cells/cm^2. On D0, the fibroblasts were subjected to stress inducing premature senescence ([…] hydrogen peroxide, H2O2, for 2 hours), then incubated at 37° C. and 10% CO2 for 72 hours in order to leave senescence settle. On D+3, these senescent fibroblasts induced by such stress (abbreviation “SIPS-fibro” for “Stress-Induced Premature Senescent-fibroblasts”) were incubated for 24 hours in the presence of different weight ratios of wogonin to baicalein (abbreviation “W/B”) of synthetic origin. On D+4, the culture supernatants were harvested in order to perform an ELISA assay for the pro-inflammatory cytokine IL-6 (“R&DSystem kit, ref. D6050”). The results obtained were then normalized with respect to the quantity of cells per condition and subjected to statistical analysis in triplicate. The results are collated in Table 1 below, in particular expressed as % inhibition of IL-6 secretion relative to the senescent control.

Structure (SMILES): COc1c(O)cc(O)c2c(=O)cc(-c3ccccc3)oc12 [wogonine, 5,7-dihydroxy-8-methoxyflavone]
- % inhibition of IL-6 secretion (relative to the senescent control, senescent NHDF, 24 hours): −10%
- Amount of IL-6 secreted (senescent NHDF (H2O2 stress), incubated 24 hours with compound, ELISA): 9.1 ng/10^6 cells
